Test results taken from patent publication US10221177B2 (HYDRA BIOSCIENCES, INC., priority 2014, dated 2019).

Molecular target: human TRPA1 (Homo sapiens (Human), UniProt O75762)
Assay: In vitro inhibition of human TRPA1, whole cell patch configuration
Format: cell-based
Settings: current activation 10 μM AITC, tested concentrations 320 pM to 3.2 μM, read-out: hTRPA1 IC50
Outline: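 Whole-cell patch clamp, bath 150 mM NaCl, 10 mM HEPES, 1 mM EGTA, 3 mM MgCl2, pH 7.4 (sometimes 2 mM CaCl2, 1 mM MgCl2). Currents recorded continuously at −60 mV or by 400 ms ramps from −40 mV holding every 4 s; inward/outward currents taken at −80/80 mV, with controlled-temperature focal perfusion.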

human TRPA1, sequence (O75762 whole entry): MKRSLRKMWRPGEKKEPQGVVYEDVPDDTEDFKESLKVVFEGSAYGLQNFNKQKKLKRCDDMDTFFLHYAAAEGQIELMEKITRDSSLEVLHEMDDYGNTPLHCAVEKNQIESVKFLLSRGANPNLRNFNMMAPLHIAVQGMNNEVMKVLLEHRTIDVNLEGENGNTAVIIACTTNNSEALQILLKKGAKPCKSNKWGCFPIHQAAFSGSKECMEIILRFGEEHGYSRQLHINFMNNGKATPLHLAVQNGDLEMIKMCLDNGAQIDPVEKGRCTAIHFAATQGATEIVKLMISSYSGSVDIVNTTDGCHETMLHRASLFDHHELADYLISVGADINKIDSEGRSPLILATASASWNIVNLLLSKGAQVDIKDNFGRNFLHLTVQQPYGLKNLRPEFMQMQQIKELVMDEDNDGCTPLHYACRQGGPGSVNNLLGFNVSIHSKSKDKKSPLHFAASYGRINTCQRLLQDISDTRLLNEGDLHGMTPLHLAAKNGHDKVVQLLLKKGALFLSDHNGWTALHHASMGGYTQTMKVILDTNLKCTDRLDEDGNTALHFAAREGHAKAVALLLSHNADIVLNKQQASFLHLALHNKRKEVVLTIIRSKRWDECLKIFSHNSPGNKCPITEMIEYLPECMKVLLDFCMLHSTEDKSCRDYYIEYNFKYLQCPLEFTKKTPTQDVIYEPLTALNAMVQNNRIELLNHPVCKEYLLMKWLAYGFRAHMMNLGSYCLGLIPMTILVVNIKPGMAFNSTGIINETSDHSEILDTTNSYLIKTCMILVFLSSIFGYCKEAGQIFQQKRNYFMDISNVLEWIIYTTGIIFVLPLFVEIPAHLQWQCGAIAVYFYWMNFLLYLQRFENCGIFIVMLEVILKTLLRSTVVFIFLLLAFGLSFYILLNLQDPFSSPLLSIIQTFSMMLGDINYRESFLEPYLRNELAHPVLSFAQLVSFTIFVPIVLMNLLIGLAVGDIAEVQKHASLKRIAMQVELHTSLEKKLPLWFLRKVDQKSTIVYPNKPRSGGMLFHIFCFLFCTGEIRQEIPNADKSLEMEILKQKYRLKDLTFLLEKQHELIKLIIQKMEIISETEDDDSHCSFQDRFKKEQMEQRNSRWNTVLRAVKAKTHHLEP

Row | SMILES | IC50
1 | Cc1cc(Cn2c(=O)c3c(ncn3CC(=O)Nc3cccc(N4CCC(C(F)(F)F)CC4)n3)n(C)c2=O)no1 [Compound 202, 2-(3-methyl-1-((5-methylisoxazol-3-yl)methyl)-2,6-dioxo-2,3-dihydro-1H-purin-7(6H)-yl)-N-(6-(4-(trifluoromethyl)piperidin-1-yl)pyridin-2-yl)acetamide] | 0.026 µM
2 | CCc1cc(NC(=O)Cn2cnc3c2c(=O)n(Cc2cc(C)on2)c(=O)n3C)nc(C(F)(F)F)c1 [Compound 203, N-(4-ethyl-6-(trifluoromethyl)pyridin-2-yl)-2-(3-methyl-1-((5-methylisoxazol-3-yl)methyl)-2,6-dioxo-2,3-dihydro-1H-purin-7(6H)-yl)acetamide] | 1.61 µM
3 | COc1cc(NC(=O)Cn2cnc3c2c(=O)n(Cc2cc(C)on2)c(=O)n3C)nc(C(F)(F)F)c1 [Compound 204, N-(4-methoxy-6-(trifluoromethyl)pyridin-2-yl)-2-(3-methyl-1-((5-methylisoxazol-3-yl)methyl)-2,6-dioxo-2,3-dihydro-1H-purin-7(6H)-yl)acetamide] | 3.25 µM
4 | CCN(c1ccc(NC(=O)Cn2cnc3c2c(=O)n(Cc2cc(C)on2)c(=O)n3C)cc1)C(F)(F)F [Compound 211, N-(4-(ethyl(trifluoromethyl)amino)phenyl)-2-(3-methyl-1-((5-methylisoxazol-3-yl)methyl)-2,6-dioxo-2,3-dihydro-1H-purin-7(6H)-yl)acetamide] | > 1 µM
5 | Cc1cc(Cn2c(=O)c3c(ncn3CC(=O)Nc3cccc(N4CC5CC5C4)n3)n(C)c2=O)no1 (centres unmarked) [Compound 212, N-(6-(3-azabicyclo[3.1.0]hexan-3-yl)pyridin-2-yl)-2-(3-methyl-1-((5-methylisoxazol-3-yl)methyl)-2,6-dioxo-2,3-dihydro-1H-purin-7(6H)-yl)acetamide] | 0.062 µM
6 | Cc1cc(Cn2c(=O)c3c(ncn3CC(=O)Nc3cccc(N4CC5C(C4)C5(F)F)n3)n(C)c2=O)no1 (centres unmarked) [Compound 213, N-(6-(6,6-difluoro-3-azabicyclo[3.1.0]hexan-3-yl)pyridin-2-yl)-2-(3-methyl-1-((5-methylisoxazol-3-yl)methyl)-2,6-dioxo-2,3-dihydro-1H-purin-7(6H)-yl)acetamide] | 0.141 µM
7 | Cc1cc(Cn2c(=O)c3c(ncn3CC(=O)Nc3cccc(N4CCN(CC(F)(F)F)CC4)n3)n(C)c2=O)no1 [Compound 214, 2-(3-methyl-1-((5-methylisoxazol-3-yl)methyl)-2,6-dioxo-2,3-dihydro-1H-purin-7(6H)-yl)-N-(6-(4-(2,2,2-trifluoroethyl)piperazin-1-yl)pyridin-2-yl)acetamide] | 0.092 µM
8 | Cc1cc(Cn2c(=O)c3c(ncn3CC(=O)Nc3cccc(-c4ccc(C(F)(F)F)nc4)n3)n(C)c2=O)no1 [Compound 215, 2-(3-methyl-1-((5-methylisoxazol-3-yl)methyl)-2,6-dioxo-2,3-dihydro-1H-purin-7(6H)-yl)-N-(6′-(trifluoromethyl)-2,3′-bipyridin-6-yl)acetamide] | 0.025 µM
9 | CC(=O)Cn1c(=O)c2c(ncn2CC(=O)Nc2csc(-c3cnc(C(F)(F)F)c(C)c3)n2)n(C)c1=O [Compound 216, 2-(3-methyl-2,6-dioxo-1-(2-oxopropyl)-2,3-dihydro-1H-purin-7(6H)-yl)-N-(2-(5-methyl-6-(trifluoromethyl)pyridin-3-yl)thiazol-4-yl)acetamide] | 0.016 µM
10 | Cc1cc(Cn2c(=O)c3c(ncn3CC(=O)Nc3csc(-c4cnc(C(F)(F)F)c(C)c4)n3)n(C)c2=O)no1 [Compound 217, 2-(3-methyl-1-((5-methylisoxazol-3-yl)methyl)-2,6-dioxo-2,3-dihydro-1H-purin-7(6H)-yl)-N-(2-(5-methyl-6-(trifluoromethyl)pyridin-3-yl)thiazol-4-yl)acetamide] | 0.003 µM
11 | Cc1cc(Cn2c(=O)c3c(ncn3CC(=O)Nc3cccc(N4CCC(C(C)(C)F)CC4)n3)n(C)c2=O)no1 [Compound 219, N-(6-(4-(2-fluoropropan-2-yl)piperidin-1-yl)pyridin-2-yl)-2-(3-methyl-1-((5-methylisoxazol-3-yl)methyl)-2,6-dioxo-2,3-dihydro-1H-purin-7(6H)-yl)acetamide] | 0.023 µM
12 | Cc1cc(Cn2c(=O)c3c(ncn3CC(=O)Nc3ccc(N4CCC(C(C)(C)F)CC4)cn3)n(C)c2=O)no1 [Compound 220, N-(5-(4-(2-fluoropropan-2-yl)piperidin-1-yl)pyridin-2-yl)-2-(3-methyl-1-((5-methylisoxazol-3-yl)methyl)-2,6-dioxo-2,3-dihydro-1H-purin-7(6H)-yl)acetamide] | 0.072 µM
13 | Cc1cc(Cn2c(=O)c3c(ncn3CC(=O)Nc3cccc(-c4cnc(C(F)(F)F)c(C)c4)n3)n(C)c2=O)no1 [Compound 221, 2-(3-methyl-1-((5-methylisoxazol-3-yl)methyl)-2,6-dioxo-2,3-dihydro-1H-purin-7(6H)-yl)-N-(5′-methyl-6′-(trifluoromethyl)-[2,3′-bipyridin]-6-yl)acetamide] | 0.005 µM
14 | Cc1noc(Cn2c(=O)c3c(ncn3CC(=O)Nc3cccc(-c4cnc(C(F)(F)F)c(C)c4)n3)n(C)c2=O)n1 [Compound 222, 2-(3-methyl-1-((3-methyl-1,2,4-oxadiazol-5-yl)methyl)-2,6-dioxo-2,3-dihydro-1H-purin-7(6H)-yl)-N-(5′-methyl-6′-(trifluoromethyl)-[2,3′-bipyridin]-6-yl)acetamide] | 0.005 µM
15 | Cc1nc(Cn2c(=O)c3c(ncn3CC(=O)Nc3cccc(-c4cnc(C(F)(F)F)c(C)c4)n3)n(C)c2=O)no1 [Compound 223, 2-(3-methyl-1-((5-methyl-1,2,4-oxadiazol-3-yl)methyl)-2,6-dioxo-2,3-dihydro-1H-purin-7(6H)-yl)-N-(5′-methyl-6′-(trifluoromethyl)-[2,3′-bipyridin]-6-yl)acetamide] | 0.025 µM
16 | Cc1cc(-c2cccc(NC(=O)Cn3cnc4c3c(=O)n(Cc3ccon3)c(=O)n4C)n2)cnc1C(F)(F)F [Compound 224, 2-(1-(isoxazol-3-ylmethyl)-3-methyl-2,6-dioxo-2,3-dihydro-1H-purin-7(6H)-yl)-N-(5′-methyl-6′-(trifluoromethyl)-[2,3′-bipyridin]-6-yl)acetamide] | 0.019 µM
17 | Cc1cc(Cn2c(=O)c3c(ncn3CC(=O)Nc3cccc(-c4cnc(C(F)(F)F)c(C)c4)n3)n(C)c2=O)on1 [Compound 225, 2-(3-methyl-1-((3-methylisoxazol-5-yl)methyl)-2,6-dioxo-2,3-dihydro-1H-purin-7(6H)-yl)-N-(5′-methyl-6′-(trifluoromethyl)-[2,3′-bipyridin]-6-yl)acetamide] | 0.049 µM
18 | CCC(=O)Cn1c(=O)c2c(ncn2CC(=O)Nc2cccc(-c3cnc(C(F)(F)F)c(C)c3)n2)n(C)c1=O [Compound 226, 2-(3-methyl-2,6-dioxo-1-(2-oxobutyl)-2,3-dihydro-1H-purin-7(6H)-yl)-N-(5′-methyl-6′-(trifluoromethyl)-[2,3′-bipyridin]-6-yl)acetamide] | 0.008 µM
19 | CC(=O)Cn1c(=O)c2c(ncn2CC(=O)Nc2cccc(-c3cnc(C(F)(F)F)c(C)c3)n2)n(C)c1=O [Compound 227, 2-(3-methyl-2,6-dioxo-1-(2-oxopropyl)-2,3-dihydro-1H-purin-7(6H)-yl)-N-(5′-methyl-6′-(trifluoromethyl)-[2,3′-bipyridin]-6-yl)acetamide] | 0.022 µM
20 | Cc1cc(Cn2c(=O)c3c(ncn3CC(=O)Nc3cccc(-c4cnc(C)c(F)c4)n3)n(C)c2=O)no1 [Compound 228, N-(5′-fluoro-6′-methyl-[2,3′-bipyridin]-6-yl)-2-(3-methyl-1-((5-methylisoxazol-3-yl)methyl)-2,6-dioxo-2,3-dihydro-1H-purin-7(6H)-yl)acetamide] | 0.017 µM
21 | Cc1cc(Cn2c(=O)c3c(ncn3CC(=O)Nc3cncc(-c4cnc(C(F)(F)F)c(C)c4)n3)n(C)c2=O)no1 [Compound 229, 2-(3-methyl-1-((5-methylisoxazol-3-yl)methyl)-2,6-dioxo-2,3-dihydro-1H-purin-7(6H)-yl)-N-(6-(5-methyl-6-(trifluoromethyl)pyridin-3-yl)pyrazin-2-yl)acetamide] | 0.009 µM
22 | Cc1noc(Cn2c(=O)c3c(ncn3CC(=O)Nc3cncc(-c4cnc(C(F)(F)F)c(C)c4)n3)n(C)c2=O)n1 [Compound 230, 2-(3-methyl-1-((3-methyl-1,2,4-oxadiazol-5-yl)methyl)-2,6-dioxo-2,3-dihydro-1H-purin-7(6H)-yl)-N-(6-(5-methyl-6-(trifluoromethyl)pyridin-3-yl)pyrazin-2-yl)acetamide] | 0.014 µM
23 | Cc1noc(Cn2c(=O)c3c(ncn3CC(=O)Nc3cccc(-c4cnc(C)c(F)c4)n3)n(C)c2=O)n1 [Compound 231, N-(5′-fluoro-6′-methyl-[2,3′-bipyridin]-6-yl)-2-(3-methyl-1-((3-methyl-1,2,4-oxadiazol-5-yl)methyl)-2,6-dioxo-2,3-dihydro-1H-purin-7(6H)-yl)acetamide] | 0.016 µM
24 | CC(=O)Cn1c(=O)c2c(ncn2CC(=O)Nc2cncc(-c3cnc(C(F)(F)F)c(C)c3)n2)n(C)c1=O [Compound 232, 2-(3-methyl-2,6-dioxo-1-(2-oxopropyl)-2,3-dihydro-1H-purin-7(6H)-yl)-N-(6-(5-methyl-6-(trifluoromethyl)pyridin-3-yl)pyrazin-2-yl)acetamide] | 0.056 µM
25 | CCC(=O)Cn1c(=O)c2c(ncn2CC(=O)Nc2cncc(-c3cnc(C(F)(F)F)c(C)c3)n2)n(C)c1=O [Compound 233, 2-(3-methyl-2,6-dioxo-1-(2-oxobutyl)-2,3-dihydro-1H-purin-7(6H)-yl)-N-(6-(5-methyl-6-(trifluoromethyl)pyridin-3-yl)pyrazin-2-yl)acetamide] | 0.01 µM
26 | CC(=O)Cn1c(=O)c2c(ncn2CC(=O)Nc2cccc(-c3cnc(C)c(C(F)(F)F)c3)n2)n(C)c1=O [Compound 234, 2-(3-methyl-2,6-dioxo-1-(2-oxopropyl)2,3-dihydro-1H-purin-7(6H)-yl)-N-(6′-methyl-5′-(trifluoromethyl)-[2,3′-bipyridin]-6-yl)acetamide] | 0.004 µM
